# Experimental data reported in patent publication US20110098325A1, “PYRIDINE BENZAMIDES AND PYRAZINE BENZAMIDES USED AS PKD INHIBITORS” (CANCER RESEARCH TECHNOLOGY LIMITED, priority 2006, published 2011).
# Biological target: T1, Human full length PKD1 (Homo sapiens, UniProt Q15139)
# T1 construct: Human full length PKD1 at ˜100 μg/mL purchased from Upstate Ltd; purchased Upstate Ltd 14-508
# T1 sequence (Q15139 1-912): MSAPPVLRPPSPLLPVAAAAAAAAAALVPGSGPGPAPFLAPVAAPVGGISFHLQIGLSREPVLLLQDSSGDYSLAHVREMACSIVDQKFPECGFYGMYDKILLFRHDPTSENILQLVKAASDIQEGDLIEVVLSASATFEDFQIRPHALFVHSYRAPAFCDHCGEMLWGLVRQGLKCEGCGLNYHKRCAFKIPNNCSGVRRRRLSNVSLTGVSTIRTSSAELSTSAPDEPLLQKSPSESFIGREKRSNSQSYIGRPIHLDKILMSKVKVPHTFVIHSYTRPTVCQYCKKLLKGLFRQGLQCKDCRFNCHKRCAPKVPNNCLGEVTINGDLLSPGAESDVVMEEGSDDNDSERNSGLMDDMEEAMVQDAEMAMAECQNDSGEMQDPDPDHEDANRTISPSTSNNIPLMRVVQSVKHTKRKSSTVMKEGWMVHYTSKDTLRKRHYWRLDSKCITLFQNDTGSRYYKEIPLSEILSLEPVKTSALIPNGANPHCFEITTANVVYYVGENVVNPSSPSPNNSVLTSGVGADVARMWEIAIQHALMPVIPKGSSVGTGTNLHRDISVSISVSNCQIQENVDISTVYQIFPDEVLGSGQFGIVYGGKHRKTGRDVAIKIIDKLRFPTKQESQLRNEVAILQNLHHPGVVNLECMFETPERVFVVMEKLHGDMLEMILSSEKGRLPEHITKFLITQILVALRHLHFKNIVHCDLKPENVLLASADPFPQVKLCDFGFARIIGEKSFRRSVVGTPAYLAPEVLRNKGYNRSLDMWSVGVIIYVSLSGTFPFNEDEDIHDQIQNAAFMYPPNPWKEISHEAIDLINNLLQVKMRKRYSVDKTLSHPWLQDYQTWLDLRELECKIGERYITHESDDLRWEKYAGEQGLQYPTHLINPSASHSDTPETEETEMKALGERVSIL
# Test: PKD1 (Human Full Length) Enzyme Activity Assay (IMAP fluorescence polarisation)
# Format: biochemical
# Conditions: 10 μM ATP, 25 minutes, room temperature
# Method: Kinase Assay Reaction Buffer: This consisted of 0.22 μM filtered 25 mM HEPES and 2 mM MgCl2 pH 7.5.
# Kinase Enzyme: Human full length PKD1 at ˜100 μg/mL purchased from Upstate Ltd (Product code 14-508) was obtained from aliquots stored at −70° C. It was prepared with a final concentration of 0.3 μg/mL by diluting 1:300 in Reaction Buffer (30 μL per 9 mL-5 mL per plate with an additional 4 mL dead volume) and vortexing prior to use.
# Substrate: Fluorescein labelled glycogen synthase-derived peptide (FI)-KKLNRTLSVA (also known as MAPKAP K2 substrate) was obtained from Molecular Devices (Product code R7127). […]
# The fluorescence polarisation of the substrate in each well was recorded using an analyst microplate reader (Molecular Devices) with a single read at Ex485 Em535 (Analyst settings: Z Height 5 mm, G Factor 0.95, Reads/well 1, Integration 100000 μs, Gain Sensitivity 2).
# Percentage inhibition was calculated based on activity of the test sample minus the average values in the blank wells relative to the average values measured in control wells minus the average values in the blank wells.
# IC50 values were calculated from 10 point dose sigmoid ‘dose-response’ curves using Xlfit software (IDBS inc, USA). […]
row,IC50 [nM],Structure (SMILES)
1,4,"COc1cc(-c2nc(-c3cccc(C(=O)NCCN(C)C)c3)cnc2N)ccc1O [X-017, 3-[5-Amino-6-(4-hydroxy-3-methoxy-phenyl)-pyrazin-2-yl]-N-(2-dimethylamino-ethyl)-benzamide]"
2,6,"COc1cc(-c2cc(-c3cccc(C(=O)NCCN(C)C)c3)cnc2N)ccc1O [Y-059, 3-[6-Amino-5-(4-hydroxy-3-methoxy-phenyl)-pyridin-3-yl]-N-(2-dimethylamino-ethyl)-benzamide]"
